Data as given in ChEMBL document CHEMBL1201862, “PubChem BioAssay data set” (2004).
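Method: 48-hour compound exposure of cells in 96-well plates, five concentrations, linear interpolation of endpoints. GI50: concentration for 50% inhibition of growth.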 Activity calls are given as the source filed them. Cut-off read from the data, not from the text of the source: active = GI50 up to about 1.1 µM and inactive = higher.

Assays:
Assay in all cases: DTP human tumour cell line panel, 48 h
HCT-116 = test system: HCT-116
UACC-257 = test system: UACC-257
IGROV-1 = test system: IGROV-1
OVCAR-5 = test system: OVCAR-5
HCT-15 = test system: HCT-15
OVCAR-3 = test system: OVCAR-3
M14 = test system: M14
SF-295 = test system: SF-295
COLO 205 = test system: COLO 205
SNB-19 = test system: SNB-19
SK-OV-3 = test system: SK-OV-3
U-251 = test system: U-251
UACC-62 = test system: UACC-62
A549 = test system: A549
786-0 = test system: 786-0
KM12 = test system: KM12
HOP-92 = test system: HOP-92
HOP-62 = test system: HOP-62
SK-MEL-2 = test system: SK-MEL-2
K562 = test system: K562

| SMILES | GI50 (HCT-116) | GI50 (UACC-257) | GI50 (IGROV-1) | GI50 (OVCAR-5) | GI50 (HCT-15) [µM] | GI50 (OVCAR-3) | GI50 (M14) | GI50 (SF-295) | GI50 (COLO 205) | GI50 (SNB-19) | GI50 (SK-OV-3) | GI50 (U-251) | GI50 (UACC-62) | GI50 (A549) | GI50 (786-0) | GI50 (KM12) | GI50 (HOP-92) | GI50 (HOP-62) | GI50 (SK-MEL-2) | GI50 (K562) |
| --- | --- | --- | --- | --- | --- | --- | --- | --- | --- | --- | --- | --- | --- | --- | --- | --- | --- | --- | --- | --- |
| CSc1ccc2c(cc1=O)[C@@H](NC(C)=O)CCc1cc(O)c(O)c(O)c1-2 | 30.6 µM (inactive) | 37.2 µM (inactive) | 15.2 µM (inactive) | 17.1 µM (inactive) | 17.5 | 18.6 µM (inactive) | 18.7 µM (inactive) | 13.3 µM (inactive) | 30.4 µM (inactive) | 29 µM (inactive) | > 100 µM (inactive) | 16.3 µM (inactive) | 36.1 µM (inactive) | 20.1 µM (inactive) | 13.8 µM (inactive) | 18.3 µM (inactive) | 23.7 µM (inactive) | 18 µM (inactive) | 32.9 µM (inactive) | – |
| COc1ccc2[nH]c3c(C)c4cc[n+](C)cc4c(C)c3c2c1 | 1.39 µM (inactive) | 8.41 µM (inactive) | 1.96 µM (inactive) | 6.67 µM (inactive) | – | 2.82 µM (inactive) | – | 0.173 µM (active) | – | 0.16 µM (active) | 7.74 µM (inactive) | 0.105 µM (active) | 2.16 µM (inactive) | – | – | 0.964 µM (active) | 2.27 µM (inactive) | 0.358 µM (active) | 2.87 µM (inactive) | – |
| COc1ccc(Cc2c3cc(OC)c(OC)cc3cc[n+]2C)cc1 | 15 µM (inactive) | 20.4 µM (inactive) | 38.7 µM (inactive) | > 100 µM (inactive) | > 31.3 | 7.28 µM (inactive) | > 21.7 µM (inactive) | 5.73 µM (inactive) | 5.21 µM (inactive) | 6.81 µM (inactive) | – | 13.5 µM (inactive) | 18.9 µM (inactive) | 9.35 µM (inactive) | > 23.8 µM (inactive) | 9.29 µM (inactive) | 23.1 µM (inactive) | > 20.8 µM (inactive) | > 29.1 µM (inactive) | 34.4 µM (inactive) |
| c1ccc(/N=C2\C(=N/c3ccccc3)N(C3CCCCC3)/C(=N\C3CCCCC3)N2c2ccccc2)cc1 | > 100 µM (inactive) | > 100 µM (inactive) | > 100 µM (inactive) | > 100 µM (inactive) | > 100 | – | > 100 µM (inactive) | – | > 100 µM (inactive) | > 100 µM (inactive) | – | > 100 µM (inactive) | – | > 100 µM (inactive) | > 100 µM (inactive) | > 100 µM (inactive) | > 100 µM (inactive) | > 100 µM (inactive) | > 100 µM (inactive) | > 100 µM (inactive) |
| CC1=[N+]([O-])C(C)(C)N(N=O)C1(C)C | > 10 µM (inactive) | > 10 µM (inactive) | – | > 10 µM (inactive) | > 10 | > 10 µM (inactive) | > 10 µM (inactive) | > 10 µM (inactive) | > 10 µM (inactive) | > 10 µM (inactive) | – | > 10 µM (inactive) | – | > 10 µM (inactive) | > 10 µM (inactive) | > 10 µM (inactive) | > 10 µM (inactive) | > 10 µM (inactive) | > 10 µM (inactive) | > 10 µM (inactive) |
| COC(=O)[C@H]1N[C@@H](C(=O)OC)C23CCC[C@H]2CC[C@]1(C(OC)OC)C3 | > 100 µM (inactive) | > 100 µM (inactive) | > 100 µM (inactive) | > 100 µM (inactive) | > 100 | – | > 100 µM (inactive) | > 100 µM (inactive) | 87.7 µM (inactive) | > 100 µM (inactive) | > 100 µM (inactive) | > 100 µM (inactive) | > 100 µM (inactive) | > 100 µM (inactive) | 81.1 µM (inactive) | > 100 µM (inactive) | > 100 µM (inactive) | > 100 µM (inactive) | > 100 µM (inactive) | 73.6 µM (inactive) |
| O=c1[nH]cnc2c1sc1nc3ccccc3n12 | 70.3 µM (inactive) | > 100 µM (inactive) | 63.8 µM (inactive) | > 100 µM (inactive) | 80.9 | > 100 µM (inactive) | > 100 µM (inactive) | > 100 µM (inactive) | > 100 µM (inactive) | > 100 µM (inactive) | 58.1 µM (inactive) | > 100 µM (inactive) | 30.5 µM (inactive) | > 100 µM (inactive) | 67.5 µM (inactive) | 5.96 µM (inactive) | > 100 µM (inactive) | > 100 µM (inactive) | 55.8 µM (inactive) | – |
| CCC(C)CN1C(=O)NC(Cc2ccccc2)C1=O (configuration not stated) | – | 22.1 µM (inactive) | – | > 100 µM (inactive) | – | – | > 100 µM (inactive) | > 100 µM (inactive) | – | > 100 µM (inactive) | – | > 100 µM (inactive) | – | > 100 µM (inactive) | – | > 100 µM (inactive) | 19.4 µM (inactive) | > 100 µM (inactive) | > 100 µM (inactive) | – |
| C[C@@H]1Nc2cc(NC(=O)OCCF)nc(N)c2N=C1c1ccccc1 | < 0.0001 µM (active) | < 0.01 µM (active) | < 0.0001 µM (active) | < 0.0001 µM (active) | < 0.0001 | < 0.0001 µM (active) | < 0.0001 µM (active) | < 0.0001 µM (active) | < 0.0001 µM (active) | 0.0409 µM (active) | – | < 0.0001 µM (active) | 34.8 µM (inactive) | < 0.0001 µM (active) | < 0.0001 µM (active) | < 0.0001 µM (active) | > 100 µM (inactive) | < 0.0001 µM (active) | < 0.01 µM (active) | < 0.0001 µM (active) |
| COC(=O)C(Cc1cn(C(C)n2cc(CC(NC(C)=O)C(=O)OC)c3ccccc32)c2ccccc12)NC(C)=O (configuration not stated) | > 100 µM (inactive) | > 100 µM (inactive) | 12.9 µM (inactive) | > 100 µM (inactive) | > 100 | > 100 µM (inactive) | > 100 µM (inactive) | 60.7 µM (inactive) | > 100 µM (inactive) | > 100 µM (inactive) | > 100 µM (inactive) | > 100 µM (inactive) | 98.2 µM (inactive) | > 100 µM (inactive) | – | 32.1 µM (inactive) | 52.5 µM (inactive) | > 100 µM (inactive) | > 100 µM (inactive) | – |
| O=Nc1c(-c2c(O)[nH]c3ccc(I)cc23)[nH]c2ccccc12 | 3.01 µM (inactive) | > 31.5 µM (inactive) | 2.13 µM (inactive) | 3.25 µM (inactive) | 3.21 | 5.35 µM (inactive) | > 21.6 µM (inactive) | 6.28 µM (inactive) | 4.26 µM (inactive) | > 29.7 µM (inactive) | 2.42 µM (inactive) | 5.62 µM (inactive) | 2.69 µM (inactive) | 3.27 µM (inactive) | – | 0.282 µM (active) | > 20.2 µM (inactive) | – | 1.99 µM (inactive) | – |
| CC12C(=CC(=O)CC1SCCS(=O)(=O)O)C(C#N)=C(N)N2c1ccc(Cl)c(Cl)c1 (configuration not stated) | > 100 µM (inactive) | > 100 µM (inactive) | > 100 µM (inactive) | – | > 100 | > 100 µM (inactive) | – | > 100 µM (inactive) | > 100 µM (inactive) | > 100 µM (inactive) | > 100 µM (inactive) | > 100 µM (inactive) | > 100 µM (inactive) | > 100 µM (inactive) | > 100 µM (inactive) | > 100 µM (inactive) | 30.6 µM (inactive) | > 100 µM (inactive) | > 100 µM (inactive) | > 100 µM (inactive) |
| C=C=CC(NC(=O)c1ccccc1)(C(=O)O)C(F)(F)F (configuration not stated) | > 100 µM (inactive) | > 100 µM (inactive) | > 100 µM (inactive) | > 100 µM (inactive) | > 100 | – | > 100 µM (inactive) | > 100 µM (inactive) | > 100 µM (inactive) | > 100 µM (inactive) | – | > 100 µM (inactive) | – | > 100 µM (inactive) | – | > 100 µM (inactive) | > 100 µM (inactive) | – | > 100 µM (inactive) | > 100 µM (inactive) |
| N/N=C(\N)SCc1ccc(N=C=S)cc1 | > 100 µM (inactive) | > 100 µM (inactive) | > 100 µM (inactive) | > 100 µM (inactive) | > 100 | – | – | > 100 µM (inactive) | > 100 µM (inactive) | > 100 µM (inactive) | > 100 µM (inactive) | > 100 µM (inactive) | > 100 µM (inactive) | > 100 µM (inactive) | > 100 µM (inactive) | > 100 µM (inactive) | > 100 µM (inactive) | > 100 µM (inactive) | > 100 µM (inactive) | > 100 µM (inactive) |
| Cn1c2c(c3ccccc31)CCN=C2C1CCCOC1=O (configuration not stated) | > 100 µM (inactive) | > 100 µM (inactive) | > 100 µM (inactive) | > 100 µM (inactive) | > 100 | > 100 µM (inactive) | > 100 µM (inactive) | – | > 100 µM (inactive) | > 100 µM (inactive) | – | > 100 µM (inactive) | > 100 µM (inactive) | > 100 µM (inactive) | > 100 µM (inactive) | > 100 µM (inactive) | 45.4 µM (inactive) | > 100 µM (inactive) | > 100 µM (inactive) | – |
| O=C(Nc1ccc(Cl)cc1Cl)/C(Cl)=C1/Sc2ccccc2NC1=O | 23 µM (inactive) | – | 28.6 µM (inactive) | 52.6 µM (inactive) | 25.9 | – | 29.2 µM (inactive) | – | 26.6 µM (inactive) | 34.5 µM (inactive) | 20.8 µM (inactive) | 32.3 µM (inactive) | 25.6 µM (inactive) | 39.3 µM (inactive) | 45.3 µM (inactive) | – | 16.8 µM (inactive) | 39.7 µM (inactive) | 15.2 µM (inactive) | 29.6 µM (inactive) |
